Patent US20030073729A1, “Medicaments for diabetic complication and neuropathy, and uses thereof” (AJINOMOTO CO. INC, priority 2000, published 2003)

Columns and labels:
GK rat [1] = assay: Motor nerve conduction velocity (tail nerve) in GK rats; type: in vivo; details: 23 weeks after start of oral administration twice a day, glibenclamide 1 mg/kg, nateglinide 50 mg/kg, control group 48.2±1.3, normal control 55.2±1.8
Method: An animal test was conducted on a set of the following four groups, and nateglinide and glibenclamide were each suspended into 0.5% methyl cellulose (MC) to give a solution for administration.
GKrats( :male) as a spontaneous diabetic model and normal Wistar rats ( : male) were introduced at the age of 6 weeks.
From the age of 7 weeks, they were kept under a light control (dark term: 7:00 a.m. to 7:00 p.m.; light term: 7:00 p.m. to next morning 7:00) in a feeding limit condition, in which a feed was given twice a day, each only for 1 hour at an interval of 6 hours (9:00 a.m. to 10:00 a.m., and 3:00 p.m. to 4:00 p.m.).
Everyday from the age of 14 weeks, 0.5% MC, glibenclamide (1 mg/kg) or nateglinide (50 mg/kg) was forcibly administered orally just before each feeding twice a day (at 9:00 a.m. and 3:00 p.m.) at an interval of 6 hours.
Twenty-three weeks after the start of the drug administration (the age of 37 weeks), in order to examine an influence on diabetic complications, the motor nerve conduction velocity was measured according to the method described in Cameronetal., Diabetologia, Vol.39, p.1047-1054 (1996), using a tail nerve.

GK rat [2] = assay: Total cholesterol concentration in blood plasma of GK rats; type: in vivo; details: fasted 17 hours, 4, 14 and 23 weeks after start of administration, glibenclamide 1 mg/kg, nateglinide 50 mg/kg twice a day, FIG. 2
Method: In the same manners as those in the Example 1, the groups formation for the test animals, the feeding of the animals and the administration of medicinal compounds (drug) to be tested to the animals were performed. At one week before the start of the drug administration (the age of 13 weeks) for the animals, and at four weeks (the age of 18 weeks), fourteen weeks (the age of 28 weeks) and twenty-three weeks (the age of 37 weeks) each after the start of the drug administration, the blood samples were taken from the jugglar vein after fasting (abstinence from food) for 17 hours. The total cholesterol concentration in the blood plasma was measured by means of the cholesterol oxidase test method using the Fuji […] analyzer.

[3] = tested on: Na^+/K^+-ATPase activity in the sciatic nerve; assay: Na+/K+-ATPase activity in sciatic nerve of GK rats; type: in vivo; details: GK rat, 23 weeks after start of oral administration, nateglinide 50 mg/kg twice a day; control group 87.6±9.8, normal control 110.5±7.7
Method: In the same manners as those in the Example 1, the group formation for the test animals, the feeding of the animals and the administration of medicinal compounds (drug) to be tested to the animals were performed. At twenty-three weeks after the start of the drug administration (the age of 37 weeks), the rats were killed and the sciatic nerves were excised. A Na^+/K^+-ATPase activity in the sciatic nerve was measured based on the method described in Green et al., Journal of Clinical Investigation, vol.72, 1058-1063 (1983).

GK rats = assay: Triglyceride concentration in blood plasma after fat emulsion loading, GK rats; type: in vivo, rat; details: fat emulsion (Intralipos, 2 g/kg) load, crossover, nateglinide 50 mg/kg or voglibose 0.2 mg/kg orally just before loading
Method: (§1) Using the postprandial hyper lipemiamodel rats (10rats) thus obtained, in a crossover method, an influence of the drug administered on a triglyceride concentration in blood plasma (a postprandial hyperlipemia- suppressing effect) was examined. That is, nateglinide (50 mg/kg) or voglibose (0.2 mg/kg), an alpha-glucosidase inhibitor as a control was administered orally, just before loading with the fat emulsion, and the blood samples were taken from a tail vein with time by four hours after the administration.
(§2) A triglyceride concentration in the blood plasma was measured by means of the Fuji Drichem analyzer.

Zucker Fatty rat = assay: Triglyceride concentration in blood plasma after fat emulsion loading, Zucker Fatty rat; type: in vivo; details: for area under the curve (AUC) of the triglyceride until four hours after the load: Zucker Fatty rat, fat emulsion load, nateglinide 50 mg/kg or voglibose 0.2 mg/kg orally
Method: as §1, §2
The same examinations were also conducted with the use of a Zucker Fatty rat which is another hyperlipidemic animal.
As a result of fractional analysis of lipoprotein by means of anagarose gel electrophoresis, amarked increase of fractions in the origin area and pre β subfractions, which are thought to contain chylomicron, VLDL (very low density lipoprotein) and so on which are said to correlate with an angiopathy and an arteriosclerosis was observed.

[4] = tested on: vWF concentration in the serum; assay: vWF concentration in serum of GK rats (ELISA); type: in vivo; details: GK rat, 23 weeks after start of administration, nateglinide 50 mg/kg twice a day; relative to normal control group 100; control group 184.8±24.3
Method: In the same manners as those in the Example 1, the feeding of the animals for the test animals and the administration of medicinal compounds (drug) to be tested to the animals were performed. At twenty-three (23) weeks after the start of the drug administration (the age of 37 weeks), the blood samples were taken from the postcaval vein. The vWF concentration in the serum was measured by means of the ELISA method using anti-human vWF antibody (made by DAKO Co.).

Compound	motor nerve conduction velocity (GK rat [1]) [m/sec]	total cholesterol concentration in the blood plasma (GK rat [2])	Na^+/K^+-ATPase activity in the sciatic nerve [3] [μmol ADP/g/hr]	increase of area under the curve (AUC) of the triglyceride during four hours after the loading (GK rats) [mg·h/dL]	area under the curve (AUC) of the triglyceride until four hours after the load (Zucker Fatty rat) [mg·h/dL]	increase of lipoprotein fractions in the origin area and pre β subfractions (agarose gel electrophoresis) (Zucker Fatty rat; after fat emulsion load, fractions thought to contain chylomicron, VLDL)	vWF concentration in the serum [4] [%]
COc1ccc(Cl)cc1C(=O)NCCc1ccc(S(=O)(=O)NC(=O)NC2CCCCC2)cc1 [glibenclamide]	52.3±0.9	change in the cholesterol value was not observed	–	–	–	–	–
CC(C)[C@H]1CC[C@H](C(=O)N[C@H](Cc2ccccc2)C(=O)O)CC1 [nateglinide, (−)-N-(trans-4-isopropylcyclohexane-carbonyl)-D-phenylalanine]	55.9±1.3	marked decrease	99.5±7.6	81 ± 22	15 ± 69	suppressed	124.5±21.5
OCC(CO)N[C@H]1C[C@](O)(CO)[C@@H](O)[C@H](O)[C@H]1O [voglibose]	–	–	–	164 ± 17	501 ± 112	–	–
